The values that follow come from patent US9505709B2, “Compositions and methods relating to ionic salts of peptides” (Thetis Pharmaceuticals LLC, priority 2014, dated 2016).

Peptide text beside a SMILES is read from it.

What is called Tmax is the time at which the peak concentration occurs.

A short description of data set [1]: Stability analysis by 1H NMR of samples exposed to air and light. Particulars: ambient temperature.
Description: Stability analysis was performed using 1H NMR (400 MHz) with acetic acid-d4 at various time point (typically days 1, 14, 30 and 60) using samples exposed to air and light at ambient temperature (clear vials with no caps).
A short description of data set [2]: Oral pharmacokinetics (oral gavage), plasma free EPA or free DHA. Particulars: oral gavage 40 mg/kg, rat. The class given is in vivo, Sprague-Dawley rats. Here is the method:
Experiments via Oral Gavage: Oral pharmacokinetic parameters of TP-212 (Lysyl-Lysine Bis-EPA), TP-312 (Lysyl-Lysine Bis-DHA), EPA-EE, EPA FFA and DHA FFA were determined in Sprague-Dawley rats. EPA-EE is 97% pure ethyl ester form of eicosapentaenoic acid. It is the principal polyunsaturated fatty acid in Vascepa, an Omega-3 compound approved in the U.S. for the treatment of severe hypertriglyceridemia. EPA FFA is 97% pure free fatty acid form of eicosapentaenoic acid and DHA FFA is 98% pure free fatty acid DHA. EPA FFA and DHA FFA are the two principal poly-unsaturated fatty acids in Epanova, an Omega-3 compound approved in the U.S. for the treatment of severe hypertriglyceridemia. The subject drugs were administered by oral gavage as an aqueous solution in de-ionized water to 6 Sprague-Dawley rats per group (3 males and 3 females). Rats were dosed at 40 mg/kg. Blood samples were obtained from each rat by jugular vein catheter. Samples were collected at pre-dose and at 0.25, 0.5, 1, 2, 4, 8, 12 and 18 hours post dose. Blood samples were centrifuged to separate red blood cells and the resulting plasma samples were analyzed for free EPA or free DHA. Free EPA or […] extracted from rat plasma with hexane at acidic condition without hydrolysis. Detection was by MS-MS monitoring of negative ion for EPA or DHA. Calculated pharmacokinetic values are mean values from 6 rats for each study drug.
For all figures and tables, the data are adjusted as follows for comparative purposes. First, the actual plasma levels are baseline adjusted. Thus, for each study arm, the pre-dose level (time=0) is subtracted from the actual plasma levels at each time point, with negative values adjusted to zero. Second, these baseline adjusted values are further adjusted to be molar dose equivalent on a comparative basis among the study arms with respect to EPA or DHA payload (i.e., as if equal amounts of free fatty acid EPA or DHA are administered in each study arm).

Setting [3] is: molar dose equivalent, baseline adjusted.
Setting [4] is: 0 h (pre-dose), molar dose equivalent, baseline adjusted.
Where [5] appears, read: 0.25 h (15 min), molar dose equivalent, baseline adjusted.
The mark [6] stands for this setting: 0.5 h (30 min), molar dose equivalent, baseline adjusted.
Setting [7] is: 1 h (60 min), molar dose equivalent, baseline adjusted.
Setting [8] is: 2 h (120 min), molar dose equivalent, baseline adjusted.
The mark [9] stands for this setting: 4 h (240 min), molar dose equivalent, baseline adjusted.
[10] abbreviates: 8 h, molar dose equivalent, baseline adjusted.
Setting [11] is: 12 h, molar dose equivalent, baseline adjusted.
The mark [12] stands for this setting: 18 h, molar dose equivalent, baseline adjusted.

Take `CCC=CCC=CCC=CCC=CCC=CCCCC(=O)O.CCC=CCC=CCC=CCC=CCC=CCCCC(=O)O.N=C(N)NCCCC(N)C(=O)NC(CCCNC(=N)N)C(=O)O` (stereo not drawn) [Arginyl-arginine Bis-EPA] (H-Arg-Arg-OH; configuration not given here): the “Stability by NMR (amount of sample remaining relative to original sample)” value in data set [1] (Day 3), in data set [1] (Day 14), in data set [1] (Day 30) and in data set [1] (Day 60) was 1 (1 = >95%) throughout.

On to `CC/C=C\C/C=C\C/C=C\C/C=C\C/C=C\CCCC(=O)O` [EPA-FFA, eicosapentaenoic acid], for which the time of peak concentration (Tmax) in data set [2] (both sexes, Sprague-Dawley, plasma) was 0.5 h. For the same molecule, in data set [2] (both sexes, Sprague-Dawley, plasma, 0 h (pre-dose), molar dose equivalent, baseline adjusted, read-out: Plasma level of free EPA), the concentration at 0 h worked out at 0 ng/mL. For the same molecule, the concentration at 0.25 h in data set [2] (both sexes, Sprague-Dawley, plasma, 0.25 h (15 min), molar dose equivalent, baseline adjusted, read-out: Plasma level of free EPA) was 0 ng/mL. In addition, the concentration at 0.5 h in data set [2] (both sexes, Sprague-Dawley, plasma, 0.5 h (30 min), molar dose equivalent, baseline adjusted, read-out: Plasma level of free EPA) was 1300 ng/mL. Further, in data set [2] (both sexes, Sprague-Dawley, plasma, 1 h (60 min), molar dose equivalent, baseline adjusted, read-out: Plasma level of free EPA), the concentration at 1 h stood at 500 ng/mL. Besides, in data set [2] (both sexes, Sprague-Dawley, plasma, 2 h (120 min), molar dose equivalent, baseline adjusted, read-out: Plasma level of free EPA), the concentration at 2 h was determined as 800 ng/mL. Moreover, the concentration at 4 h in data set [2] (both sexes, Sprague-Dawley, plasma, 4 h (240 min), molar dose equivalent, baseline adjusted, read-out: Plasma level of free EPA) turned out to be 1100 ng/mL. Further, the concentration at 8 h in data set [2] (both sexes, Sprague-Dawley, plasma, 8 h, molar dose equivalent, baseline adjusted, read-out: Plasma level of free EPA) came out at 900 ng/mL. Also, the concentration at 12 h in data set [2] (both sexes, Sprague-Dawley, plasma, 12 h, molar dose equivalent, baseline adjusted, read-out: Plasma level of free EPA) came out at 300 ng/mL. For the same molecule, the concentration at 18 h in data set [2] (both sexes, Sprague-Dawley, plasma, 18 h, molar dose equivalent, baseline adjusted, read-out: Plasma level of free EPA) worked out at 0 ng/mL. For the same molecule, in data set [2] (setting [3]), the “AUC 0-1 hrs (free EPA)” value came out at 600 ng·h/mL, the “AUC 0-4 hrs (free EPA)” value was found to be 3100 ng·h/mL, the “AUC 0-18 hrs (free EPA)” value worked out at 10500 ng·h/mL and the “Cmax (free EPA)” value is 1300 ng/mL.

Turning to `CC/C=C\C/C=C\C/C=C\C/C=C\C/C=C\CCCC(=O)O.NCCCC[C@H](NC(=O)[C@@H](N)CCCCN)C(=O)O.O=C(O)c1cccnc1` [Compound 7, (L,L) Lysyl-lysine EPA niacin], the “Stability by NMR (amount of sample remaining relative to original sample)” value in data set [1] (Day 3), in data set [1] (Day 14), in data set [1] (Day 30) and in data set [1] (Day 60) was 1 (1 = >95%) throughout.

Regarding `CC/C=C\C/C=C\C/C=C\C/C=C\C/C=C\C/C=C\CCC(=O)O` [DHA-FFA, DHA], in data set [2], the “Tmax (free DHA)” value came to 4 h. The “Plasma level of free DHA” value came to 0 ng/mL in data set [2] (setting [4]); 0 ng/mL in data set [2] (setting [5]); 1800 ng/mL in data set [2] (setting [6]); 1800 ng/mL in data set [2] (setting [7]); 2200 ng/mL in data set [2] (setting [8]); 3400 ng/mL in data set [2] (setting [9]). Besides, the “Plasma level of free DHA” value worked out at 1700 ng/mL in data set [2] (setting [10]), 2100 ng/mL in data set [2] (setting [11]) and 1200 ng/mL in data set [2] (setting [12]). Moreover, the “AUC 0-1 hrs (free DHA)” value in data set [2] (setting [3]) is 1100 ng·h/mL. Also, the “AUC 0-4 hrs (free DHA)” value in data set [2] (setting [3]) came out at 8700 ng·h/mL. The “AUC 0-18 hrs (free DHA)” value in data set [2] (setting [3]) stood at 36300 ng·h/mL. In data set [2] (setting [3]), the “Cmax (free DHA)” value was determined as 3400 ng/mL.

Turning to `CCC=CCC=CCC=CCC=CCC=CCC=CCCC(=O)O.CCC=CCC=CCC=CCC=CCC=CCC=CCCC(=O)O.N=C(N)NCCCC(N)C(=O)NC(CCCCN)C(=O)O` [Arginyl-lysine Bis-DHA], the “Stability by NMR (amount of sample remaining relative to original sample)” value in data set [1] (Day 3), in data set [1] (Day 14), in data set [1] (Day 30) and in data set [1] (Day 60) was 1 (1 = >95%) in each case.

Regarding `CCC=CCC=CCC=CCC=CCC=CCCCC(=O)O.CCC=CCC=CCC=CCC=CCC=CCCCC(=O)O.N=C(N)NCCCC(N)C(=O)NC(CCCCN)C(=O)O` [Arginyl-lysine Bis-EPA], the “Stability by NMR (amount of sample remaining relative to original sample)” value in data set [1] (Day 3), in data set [1] (Day 14), in data set [1] (Day 30) and in data set [1] (Day 60) was 1 (1 = >95%) throughout.

For the molecule `CC/C=C\C/C=C\C/C=C\C/C=C\C/C=C\CCCC(=O)OCC` [EPA ethyl ester], the “Tmax (free EPA)” value in data set [2] was 4 h. Besides, the “Plasma level of free EPA” value is 0 ng/mL in data set [2] (setting [4]); 300 ng/mL in data set [2] (setting [5]); 500 ng/mL in data set [2] (setting [6]); 700 ng/mL in data set [2] (setting [7]); 800 ng/mL in data set [2] (setting [8]); 1100 ng/mL in data set [2] (setting [9]). In addition, the “Plasma level of free EPA” value in data set [2] (setting [10]) was found to be 500 ng/mL; in data set [2] (setting [11]), 0 ng/mL; in data set [2] (setting [12]), 0 ng/mL. Besides, in data set [2] (setting [3]), the “AUC 0-18 hrs (free EPA)” value turned out to be 7200 ng·h/mL. Besides, the “Cmax (free EPA)” value in data set [2] (setting [3]) was determined as 1100 ng/mL. In addition, the “Stability by NMR (amount of sample remaining relative to original sample)” value in data set [1] (Day 3) is 1 (1 = >95%); in data set [1] (Day 14) it was 1-2; in data set [1] (Day 30) it was 4 (4 = <50%); in data set [1] (Day 60) it was 4 (4 = <50%).

Take `CCC=CCC=CCC=CCC=CCC=CCC=CCCC(=O)O.CCC=CCC=CCC=CCC=CCC=CCC=CCCC(=O)O.N=C(N)NCCCC(N)C(=O)NC(CCCNC(=N)N)C(=O)O` [Arginyl-arginine Bis-DHA]: the “Stability by NMR (amount of sample remaining relative to original sample)” value in data set [1] (Day 3), in data set [1] (Day 14), in data set [1] (Day 30) and in data set [1] (Day 60) was 1 (1 = >95%) each time.
